Numbered stars: 1 amine (or outer) side, 2 acyl side, 3 side chain; on linkers, the order of the positions; unused ones are H or OH. Bridge positions count the residues as written; N and C are the ends. Square brackets hold non-standard residues; d marks the D form. Peptide text beside a SMILES is read from it. * marks the point of attachment. X33 = O=C([C@H](Cc1ccc(-c2cccc(Cl)c2)cc1)N[*:1])[*:2]; Phe(3-allyloxy) = C=CCOc1cccc(C[C@H](N)C(=O)O)c1; Phe(3-CF3) = N[C@@H](Cc1cccc(C(F)(F)F)c1)C(=O)O; Phe(4-COOH) = N[C@@H](Cc1ccc(C(=O)O)cc1)C(=O)O; Bip = N[C@@H](Cc1ccc(-c2ccccc2)cc1)C(=O)O; Carboxymethyl = O=C(O)C*; NMeA = CN[C@@H](C)C(=O)O; Nle = CCCC[C@H](N)C(=O)O
Biological target: T1, PE-labeled human PD-L1-Ig binding to Jurkat cell line over-expressing human PD-1 (Jurkat-PD-1) (Homo sapiens, UniProt Q15116)
T1 construct: expressed in transfected cells; host or cells: Jurkat
Assay: Jurkat-PD-1 Cell Binding High-Content Screening Assay (CBA): Method 1
Details: Jurkat-hPD-1 cells, PE-labeled PD-L1-Ig 20 nM final; read-out: Jurkat HPDL1 PD1 IC50 (uM) (Method 1)

T1 sequence (Q15116 25-288): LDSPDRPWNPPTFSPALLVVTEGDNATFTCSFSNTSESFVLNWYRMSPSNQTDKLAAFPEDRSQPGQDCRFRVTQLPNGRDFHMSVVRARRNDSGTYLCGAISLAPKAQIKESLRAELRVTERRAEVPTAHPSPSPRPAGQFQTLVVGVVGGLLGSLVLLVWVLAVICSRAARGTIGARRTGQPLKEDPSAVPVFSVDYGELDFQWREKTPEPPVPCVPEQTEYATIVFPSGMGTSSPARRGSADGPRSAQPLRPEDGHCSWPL

| IC50 [µM] | SMILES |
| --- | --- |
| 0.04 | CC(C)C[C@@H]1NC(=O)[C@H](Cc2c[nH]c3ccccc23)NC(=O)[C@H](CC(=O)O)NC(=O)[C@H](Cc2ccc(O)cc2)NC(=O)[C@H](Cc2ccccc2)NC(=O)CSC[C@@H](C(=O)N[C@@H](C)C(N)=O)NC(=O)[C@H](CO)NC(=O)[C@H](C(C)C)NC(=O)[C@H](CC(C)C)NC(=O)[C@H](CCCCN)NC(=O)[C@@H](C)NC(=O)[C@H](C)N(C)C(=O)[C@H](CCC(=O)O)NC(=O)[C@H](Cc2ccc(-c3ccccc3)cc2)NC1=O [Compound 1767] ({CH2CO}-FYDWL[Bip]E[NMeA][dA]KLVSCA-NH2; thioether N-14) |
| 0.04 | CC(C)C[C@@H]1NC(=O)[C@H](Cc2c[nH]c3ccccc23)NC(=O)[C@H](CC(=O)O)NC(=O)[C@H](Cc2ccc(O)cc2)NC(=O)[C@H](Cc2ccccc2)NC(=O)CSC[C@@H](C(=O)N[C@@H](C)C(N)=O)NC(=O)[C@H](CO)NC(=O)[C@H](C(C)C)NC(=O)[C@H](CC(C)C)NC(=O)[C@H](CC(N)=O)NC(=O)[C@@H](C)NC(=O)[C@H](C)N(C)C(=O)[C@H](CCC(=O)O)NC(=O)[C@H](Cc2ccc(-c3ccccc3)cc2)NC1=O [Compound 1768] ({CH2CO}-FYDWL[Bip]E[NMeA][dA]NLVSCA-NH2; thioether N-14) |
| 0.04 | CC(C)C[C@@H]1NC(=O)[C@H](Cc2c[nH]c3ccccc23)NC(=O)[C@H](CC(=O)O)NC(=O)[C@H](Cc2ccc(OCC(=O)O)cc2)NC(=O)[C@H](CC(N)=O)NC(=O)CSC[C@@H](C(=O)N[C@@H](C)C(N)=O)NC(=O)[C@H](CO)NC(=O)[C@H](C(C)C)NC(=O)[C@H](CC(C)C)NC(=O)[C@H](CC(N)=O)NC(=O)[C@@H](C)NC(=O)[C@H](C)N(C)C(=O)[C@H](C(C)C)NC(=O)[C@H](Cc2ccc(-c3ccccc3)cc2)NC1=O [Compound 1769] ({CH2CO}-NY(Carboxymethyl)DWL[Bip]V[NMeA][dA]NLVSCA-NH2; thioether N-14) |
| 0.04 | CC(C)C[C@@H]1NC(=O)[C@H](CCCNC(=N)N)NC(=O)[C@@H](CC(C)C)NC(=O)[C@H](C)N(C)C(=O)[C@H](C(C)C)NC(=O)[C@H](Cc2ccc(-c3ccccc3)cc2)NC(=O)[C@H](C(C)C)NC(=O)[C@H](Cc2c[nH]c3ccccc23)NC(=O)[C@H](CC(=O)O)NC(=O)[C@H](Cc2ccc(O)cc2)NC(=O)[C@H](Cc2ccccc2)NC(=O)CSC[C@@H](C(=O)N[C@@H](C)C(N)=O)NC(=O)[C@H](CO)NC(=O)[C@H](C(C)C)NC1=O [Compound 1770] ({CH2CO}-FYDWV[Bip]V[NMeA][dL]RLVSCA-NH2; thioether N-14) |
| 0.04 | CC(C)C[C@@H]1NC(=O)[C@H](Cc2c[nH]c3ccccc23)NC(=O)[C@H](CC(=O)O)NC(=O)[C@H](Cc2ccc(O)cc2)NC(=O)[C@H](Cc2ccccc2)NC(=O)CSC[C@@H](C(=O)N[C@@H](C)C(N)=O)NC(=O)[C@H](CO)NC(=O)[C@H](C(C)C)NC(=O)[C@H](CC(C)C)NC(=O)[C@H](CC(N)=O)NC(=O)[C@@H](C(C)C)NC(=O)[C@H](C)N(C)C(=O)[C@H](C(C)C)NC(=O)[C@H](Cc2ccc(-c3ccccc3)cc2)NC1=O [Compound 1771] ({CH2CO}-FYDWL[Bip]V[NMeA][dV]NLVSCA-NH2; thioether N-14) |
| 0.04 | C=CCOc1cccc(C[C@@H]2NC(=O)[C@H](Cc3ccccc3)NC(=O)CSC[C@@H](C(=O)N[C@@H](C)C(N)=O)NC(=O)[C@H](CO)NC(=O)[C@H](C(C)C)NC(=O)[C@H](CC(C)C)NC(=O)[C@H](CC(N)=O)NC(=O)[C@@H](C)NC(=O)[C@H](C)N(C)C(=O)[C@H](C(C)C)NC(=O)[C@H](Cc3ccc(-c4ccccc4)cc3)NC(=O)[C@H](CC(C)C)NC(=O)[C@H](Cc3c[nH]c4ccccc34)NC(=O)[C@H](CC(=O)O)NC2=O)c1 [Compound 1772] ({CH2CO}-F[Phe(3-allyloxy)]DWL[Bip]V[NMeA][dA]NLVSCA-NH2; thioether N-14) |
| 0.05 | CC(C)C[C@@H]1NC(=O)[C@H](C)NC(=O)[C@@H](C)NC(=O)[C@H](C)N(C)C(=O)[C@H](CCC(=O)O)NC(=O)[C@H](Cc2ccc(-c3ccccc3)cc2)NC(=O)[C@H](CC(C)C)NC(=O)[C@H](Cc2c[nH]c3ccccc23)NC(=O)[C@H](CC(=O)O)NC(=O)[C@H](Cc2ccc(C(=O)O)cc2)NC(=O)[C@H](Cc2ccccc2)NC(=O)CSC[C@@H](C(=O)N[C@@H](C)C(N)=O)NC(=O)[C@H](CO)NC(=O)[C@H](C(C)C)NC1=O [Compound 1773] ({CH2CO}-F[Phe(4-COOH)]DWL[Bip]E[NMeA][dA]ALVSCA-NH2; thioether N-14) |
| 0.05 | CC(C)C[C@@H]1NC(=O)[C@H](Cc2c[nH]c3ccccc23)NC(=O)[C@H](CC(=O)O)NC(=O)[C@H](Cc2ccc(O)cc2)NC(=O)[C@H](Cc2ccccc2)NC(=O)CSC[C@@H](C(=O)N[C@@H](C)C(N)=O)NC(=O)[C@H](CO)NC(=O)[C@H](C(C)C)NC(=O)[C@H](CC(C)C)NC(=O)[C@H](CC(N)=O)NC(=O)[C@@H](C)NC(=O)[C@H](C)N(C)C(=O)[C@H](C(C)C)NC(=O)[C@H](Cc2ccc(-c3cccc(Cl)c3)cc2)NC1=O [Compound 1774] ({CH2CO}-FYDWL[X33]V[NMeA][dA]NLVSCA-NH2; thioether N-14) |
| 0.05 | CC(C)C[C@@H]1NC(=O)[C@H](Cc2c[nH]c3ccccc23)NC(=O)[C@H](CC(=O)O)NC(=O)[C@H](Cc2ccc(O)cc2)NC(=O)[C@H](Cc2ccccc2)NC(=O)CSC[C@@H](C(=O)N[C@@H](C)C(N)=O)NC(=O)[C@H](CO)NC(=O)[C@H](C(C)C)NC(=O)[C@H](CC(C)C)NC(=O)[C@H](CC(N)=O)NC(=O)[C@@H](CC(C)C)NC(=O)[C@H](C)N(C)C(=O)[C@H](CCCNC(=N)N)NC(=O)[C@H](Cc2ccc(-c3ccccc3)cc2)NC1=O [Compound 1775] ({CH2CO}-FYDWL[Bip]R[NMeA][dL]NLVSCA-NH2; thioether N-14) |
| 0.06 | CC(C)C[C@@H]1NC(=O)[C@H](Cc2c[nH]c3ccccc23)NC(=O)[C@H](CC(=O)O)NC(=O)[C@H](Cc2cccc(C(F)(F)F)c2)NC(=O)[C@H](Cc2ccccc2)NC(=O)CSC[C@@H](C(=O)N[C@@H](C)C(N)=O)NC(=O)[C@H](CO)NC(=O)[C@H](C(C)C)NC(=O)[C@H](CC(C)C)NC(=O)[C@H](CC(N)=O)NC(=O)[C@@H](C)NC(=O)[C@H](C)N(C)C(=O)[C@H](C(C)C)NC(=O)[C@H](Cc2ccc(-c3ccccc3)cc2)NC1=O [Compound 1777] ({CH2CO}-F[Phe(3-CF3)]DWL[Bip]V[NMeA][dA]NLVSCA-NH2; thioether N-14) |
| 0.07 | CCCC[C@@H]1NC(=O)[C@H](CC(N)=O)NC(=O)[C@@H](C)NC(=O)[C@H](C)N(C)C(=O)[C@H](C(C)C)NC(=O)[C@H](Cc2ccc(-c3ccccc3)cc2)NC(=O)[C@H](CC(C)C)NC(=O)[C@H](Cc2c[nH]c3ccccc23)NC(=O)[C@H](CC(=O)O)NC(=O)[C@H](Cc2ccc(O)cc2)NC(=O)[C@H](Cc2ccccc2)NC(=O)CSC[C@@H](C(=O)N[C@@H](C)C(N)=O)NC(=O)[C@H]([C@@H](C)O)NC(=O)[C@H](C(C)C)NC1=O [Compound 1778] ({CH2CO}-FYDWL[Bip]V[NMeA][dA]N[Nle]VTCA-NH2; thioether N-14) |
| 0.07 | CC(C)C[C@@H]1NC(=O)[C@H](CCCNC(=N)N)NC(=O)[C@@H](C)NC(=O)[C@H](C)N(C)C(=O)[C@H](C(C)C)NC(=O)[C@H](Cc2ccc(-c3ccccc3)cc2)NC(=O)[C@H](C(C)C)NC(=O)[C@H](Cc2c[nH]c3ccccc23)NC(=O)[C@H](CC(=O)O)NC(=O)[C@H](Cc2ccc(O)cc2)NC(=O)[C@H](Cc2ccccc2)NC(=O)CSC[C@@H](C(=O)N[C@@H](C)C(N)=O)NC(=O)[C@H](CO)NC(=O)[C@H](C(C)C)NC1=O [Compound 1779] ({CH2CO}-FYDWV[Bip]V[NMeA][dA]RLVSCA-NH2; thioether N-14) |
| 0.08 | CC(C)C[C@@H]1NC(=O)[C@H](Cc2c[nH]c3ccccc23)NC(=O)[C@H](CC(=O)O)NC(=O)[C@H](Cc2ccc(O)cc2)NC(=O)[C@H](Cc2ccccc2)NC(=O)CSC[C@@H](C(=O)N[C@@H](C)C(N)=O)NC(=O)[C@H](CO)NC(=O)[C@H](C(C)C)NC(=O)[C@H](CC(C)C)NC(=O)[C@H](CCCNC(=N)N)NC(=O)[C@@H](CC(C)C)NC(=O)[C@H](C)N(C)C(=O)[C@H](CCCNC(=N)N)NC(=O)[C@H](Cc2ccc(-c3ccccc3)cc2)NC1=O [Compound 1780] ({CH2CO}-FYDWL[Bip]R[NMeA][dL]RLVSCA-NH2; thioether N-14) |
| 0.08 | CC(C)C[C@@H]1NC(=O)[C@H](Cc2c[nH]c3ccccc23)NC(=O)[C@H](CC(=O)O)NC(=O)[C@H](Cc2ccc(O)cc2)NC(=O)[C@H](Cc2ccccc2)NC(=O)CSC[C@@H](C(=O)N[C@@H](C)C(N)=O)NC(=O)[C@H](CO)NC(=O)[C@H](C(C)C)NC(=O)[C@H](CC(C)C)NC(=O)[C@H](CC(N)=O)NC(=O)[C@@H](C)NC(=O)[C@H](C)N(C)C(=O)[C@H](CCCNC(=N)N)NC(=O)[C@H](Cc2ccc(-c3ccccc3)cc2)NC1=O [Compound 1781] ({CH2CO}-FYDWL[Bip]R[NMeA][dA]NLVSCA-NH2; thioether N-14) |
| 0.08 | CC(C)C[C@@H]1NC(=O)[C@H](Cc2c[nH]c3ccccc23)NC(=O)[C@H](CC(=O)O)NC(=O)[C@H](Cc2ccc(O)cc2)NC(=O)[C@H](Cc2ccccc2)NC(=O)CSC[C@@H](C(=O)N[C@@H](C)C(N)=O)NC(=O)[C@H](CO)NC(=O)[C@H](C(C)C)NC(=O)[C@H](CC(C)C)NC(=O)[C@H](CCCNC(=N)N)NC(=O)[C@@H](C)NC(=O)[C@H](C)N(C)C(=O)[C@H](CCCNC(=N)N)NC(=O)[C@H](Cc2ccc(-c3ccccc3)cc2)NC1=O [Compound 1782] ({CH2CO}-FYDWL[Bip]R[NMeA][dA]RLVSCA-NH2; thioether N-14) |
| 0.09 | CC(C)C[C@@H]1NC(=O)[C@H](Cc2c[nH]c3ccccc23)NC(=O)[C@H](CC(=O)O)NC(=O)[C@H](Cc2ccc(O)cc2)NC(=O)[C@H](Cc2ccccc2)NC(=O)CSC[C@@H](C(=O)N[C@@H](C)C(N)=O)NC(=O)[C@H](CO)NC(=O)[C@H](C(C)C)NC(=O)[C@H](CC(C)C)NC(=O)[C@H](CC(N)=O)NC(=O)[C@@H](Cc2ccccc2)NC(=O)[C@H](C)N(C)C(=O)[C@H](C(C)C)NC(=O)[C@H](Cc2ccc(-c3ccccc3)cc2)NC1=O [Compound 1783] ({CH2CO}-FYDWL[Bip]V[NMeA][dF]NLVSCA-NH2; thioether N-14) |
